# Test results from patent publication US11370785B2, “Multicyclic compounds as farnesoid X receptor modulators” (BRISTOL-MYERS SQUIBB COMPANY, priority 2017, dated 2022).
# Target: T1, human FXR (Homo sapiens, UniProt Q96RI1)
# T1 construct: expressed in transfected cells; host or cells: HEK293 cells stably carrying a 5xGal4-response-element firefly luciferase reporter, transiently transfected with the pcDNA3.1-Gal4-FXR plasmid
# T1 sequence (Q96RI1 262-486 limits assumed): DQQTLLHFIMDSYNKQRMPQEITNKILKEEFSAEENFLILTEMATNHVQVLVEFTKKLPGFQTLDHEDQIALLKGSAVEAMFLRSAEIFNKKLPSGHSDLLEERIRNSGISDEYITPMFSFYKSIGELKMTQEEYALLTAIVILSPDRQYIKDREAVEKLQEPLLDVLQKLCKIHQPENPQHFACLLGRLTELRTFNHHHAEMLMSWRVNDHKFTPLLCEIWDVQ
# Experiment: transient human FXR/Gal4-luciferase reporter assay
# Format: cell-based
# Conditions: Gal4-hFXR reporter in HEK293 cells; read-out: HLE GAL-FXR EC50
# Procedure: The exemplified compounds of the present invention were tested in the transient human FXR/Gal4-luciferase reporter assay, and assay results were reported in Table 1 together with other analytical data.
# A Gal4-hFXR fusion construct reporter system was used as the primary assay to characterize compound activity. A construct including 5 copies of the Gal4 promoter response element upstream of a firefly luciferase reporter cDNA was stably expressed in HEK293 cells. This reporter cell line was maintained in Dulbecco's Modified Eagle's medium (DMEM; Gibco) supplemented with 1% penicillin-streptomycin (P/S) solution, 500 μg/mL Zeocin and 10% charcoal/dextran-treated fetal bovine serum (cs-FBS) at 37° C. in a humidified 5% CO2 atmosphere. Another plasmid was constructed in which the human cytomegalovirus promoter in the pcDNA3.1 vector directs the expression of the cDNA encoding a fusion protein comprised of the DNA binding domain from the Gal4 transcription factor fused to the ligand binding domain from human FXR.
# The day prior to transfection, the reporter cells in culture are detached from the plate with trypsin and plated into a T75 flask at a sufficient density to achieve approximately 90% confluence the next morning. The transfection reagents are prepared by separately diluting 25 μg of the pcDNA3.1-Gal4-FXR plasmid into 1.87 mL of Opti-MEM (Thermo-Fisher), and 40 μL of Lipofectamine 2000 (Thermo-Fisher) into 1.87 mL of Opti-MEM, and then adding the diluted DNA solution into the diluted Lipofectamine 2000 solution and incubating at room temperature for 15-20 minutes. The mixture is further diluted with 10 mL of a solution comprised of DMEM, 10% cs-FBS, and 1% P/S immediately prior to transferring to the cells. The maintenance culture media is aspirated from the cells and the final transfection mixture is added before the cells are incubated overnight at 37° C. in a humidified 5% CO2 atmosphere. This protocol can be scaled up, and the transiently transfected cells can be cryopreserved in an assay-ready format.
# For compound testing, 100 nL of the compounds (serial dilutions in DMSO) are dispensed with an Echo acoustic dispenser (Labcyte) into the wells of a Corning/Costar clear bottom 384-well white plate. The transfected cells are harvested, counted, and diluted such that 10-25,000 cells in 25 μL are plated into each well of the 384-well compound assay plate. The compound-treated cells are incubated overnight at 37° C. in a humidified 5% CO2 atmosphere. The next morning 25 μL of Steady-Glo (Promega) are added to each well of the plate, the mixture is incubated for 15 min. with shaking, and luminescence is measured on an Envision (Perkin Elmer) plate reader. Background counts from cells treated with DMSO alone are subtracted from all raw counts, and the corrected values are converted to a percentage of the control response attained with 8 μM GW-4064.
row,SMILES,EC50
1,"Clc1cccc(Cl)c1-c1noc(C2CC2)c1C=C1CC2(CCN(c3ccc(-c4nn[nH]n4)cc3)CC2)C1 [Example 50, 4-((7-(4-(2H-tetrazol-5-yl)phenyl)-7-azaspiro[3.5]nonan-2-ylidene)methyl)-5-cyclopropyl-3-(2,6-dichlorophenyl)isoxazole]",4330 nM
2,"O=C(NS(=O)(=O)C1CC1)c1cc(C(F)(F)F)c2cc(N3CCC4(CC3)CC(Cc3c(-c5ccccc5C(F)(F)F)noc3C3CC3)C4)ccc2n1 [Example 82, 6-(2-((5-Cyclopropyl-3-(2-(trifluoromethyl)phenyl)isoxazol-4-yl)methyl)-7-azaspiro[3.5]nonan-7-yl)-N-(cyclopropylsulfonyl)-4-(trifluoromethyl)quinoline-2-carboxamide]",11 nM

# Same assay, conditions: Gal4-hFXR reporter in HEK293 cells; relative to 8 μM GW-4064; read-out: FXR EC50
row,SMILES,EC50
1,Cc1cc2cc(N3CCC4(CC3)CC(=Cc3c(-c5c(Cl)cccc5Cl)noc3C3CC3)C4)ccc2nc1C(=O)O [Example 43],1350 nM
2,O=C(O)c1ccc(CCN2CCC3(CC2)CC(=Cc2c(-c4c(Cl)cccc4Cl)noc2C2CC2)C3)cc1 [Example 44],765 nM
3,O=C(O)Cc1ccc(N2CCC3(CC2)CC(=Cc2c(-c4c(Cl)cccc4Cl)noc2C2CC2)C3)cc1 [Example 45],320 nM
4,O=C(O)C1(c2ccc(N3CCC4(CC3)CC(=Cc3c(-c5c(Cl)cccc5Cl)noc3C3CC3)C4)cc2)CC1 [Example 46],391 nM
5,O=C(O)c1ccc2cc(N3CCC4(CC3)CC(=Cc3c(-c5c(Cl)cccc5Cl)noc3C3CC3)C4)ccc2c1 [Example 47],53 nM
6,"N#Cc1ccc(N2CCC3(CC2)CC(=Cc2c(-c4c(Cl)cccc4Cl)noc2C2CC2)C3)cc1 [Example 48, 4-(2-((5-cyclopropyl-3-(2,6-dichlorophenyl)isoxazol-4-yl)methylene)-7-azaspiro[3.5]nonan-7-yl)benzonitrile]",2360 nM
7,N#Cc1cccc(N2CCC3(CC2)CC(=Cc2c(-c4c(Cl)cccc4Cl)noc2C2CC2)C3)c1 [Example 49],2570 nM
8,Clc1cccc(Cl)c1-c1noc(C2CC2)c1C=C1CC2(CCN(c3cccc(-c4nn[nH]n4)c3)CC2)C1 [Example 51],1080 nM
9,O=C(O)c1ccc(CN2CCC3(CC2)CC(=Cc2c(-c4c(Cl)cccc4Cl)noc2C2CC2)C3)cc1 [Example 52],4320 nM
10,Cn1nnc(-c2ccc(N3CCC4(CC3)CC(=Cc3c(-c5c(Cl)cccc5Cl)noc3C3CC3)C4)cc2)n1 [Example 53],908 nM
11,O=C(O)c1cc2ccc(N3CCC4(CC3)CC(=Cc3c(-c5c(Cl)cccc5Cl)noc3C3CC3)C4)cc2nn1 [Example 54],267 nM
12,Cc1cccc(Cl)c1-c1noc(C2CC2)c1C=C1CC2(CCN(c3ccc4cc(C(=O)O)ccc4c3)CC2)C1 [Example 55],125 nM
13,Cc1cccc(Cl)c1-c1noc(C2CC2)c1C=C1CC2(CCN(c3ccc4nc(C(=O)O)ccc4c3)CC2)C1 [Example 56],152 nM
14,COCCn1cc(C(=O)O)c2ccc(N3CCC4(CC3)CC(=Cc3c(-c5c(Cl)cccc5Cl)noc3C3CC3)C4)cc21 [Example 57],19 nM
15,Cc1cccc(Cl)c1-c1noc(C2CC2)c1C=C1CC2(CCN(c3ccc4nc(C(=O)O)cc(C(F)(F)F)c4c3)CC2)C1 [Example 58],10 nM
16,Cc1cccc(Cl)c1-c1noc(C2CC2)c1C=C1CC2(CCN(c3ccc4c(C(=O)O)cn(C)c4c3)CC2)C1 [Example 59],10 nM
17,Cc1cccc(Cl)c1-c1noc(C2CC2)c1C=C1CC2(CCN(c3nc4c(F)cc(C(=O)O)cc4s3)CC2)C1 [Example 60],144 nM
18,O=C(O)COc1ccc(N2CCC3(CC2)CC(=Cc2c(-c4c(Cl)cccc4Cl)noc2C2CC2)C3)cc1 [Example 61],461 nM
19,Cn1cc(-c2nn[nH]n2)c2ccc(N3CCC4(CC3)CC(=Cc3c(-c5ccccc5C(F)(F)F)noc3C3CC3)C4)cc21 [Example 62],54 nM
20,Cc1cccc(Cl)c1-c1noc(C2CC2)c1C=C1CC2(CCN(S(=O)(=O)c3cccc(C(=O)O)c3)CC2)C1 [Example 63],661 nM
21,O=C(O)c1cccc(N2CCC3(CC2)CC(=Cc2c(-c4c(Cl)cccc4Cl)noc2C2CC2)C3)c1 [Example 64],370 nM
22,O=C(O)c1cc2ccc(N3CCC4(CC3)CC(Cc3c(-c5c(Cl)cccc5Cl)noc3C3CC3)C4)cc2nn1 [Example 65],204 nM
23,O=C(O)c1ccc(N2CCC3(CC2)CC(=Cc2c(-c4c(Cl)cccc4Cl)noc2C2CC2)C3)cc1 [Example 66],693 nM

row,SMILES,EC50
1,COc1cc(C(=O)O)nc2ccc(N3CCC4(CC3)CC(Cc3c(-c5ccccc5C(F)(F)F)noc3C3CC3)C4)cc12 [Example 69],17 nM
2,COc1cc(C(=O)O)nc2ccc(N3CCC4(CC3)CC(=Cc3c(-c5ccccc5OC(F)(F)F)noc3C3CC3)C4)cc12 [Example 70],65 nM
3,COc1cc(C(=O)O)nc2ccc(N3CCC4(CC3)CC(Cc3c(-c5ccccc5OC(F)(F)F)noc3C3CC3)C4)cc12 [Example 71],16 nM
4,COc1cc(C(=O)O)nc2ccc(N3CCC4(CC3)CC(=Cc3c(-c5ccccc5C(F)(F)F)noc3C3CC3)C4)cc12 [Example 72],21 nM
5,O=C(O)c1cc(C(F)(F)F)c2cc(N3CCC4(CC3)CC(=Cc3c(-c5c(Cl)cncc5Cl)noc3C3CC3)C4)ccc2n1 [Example 73],18 nM
6,Cc1nc(C(=O)O)c2ccc(N3CCC4(CC3)CC(=Cc3c(-c5ccccc5C(F)(F)F)noc3C3CC3)C4)cn12 [Example 74],114 nM
7,Cc1nc(C(=O)O)c2ccc(N3CCC4(CC3)CC(Cc3c(-c5ccccc5C(F)(F)F)noc3C3CC3)C4)cn12 [Example 75],1990 nM
8,COc1cc(C(=O)O)nc2ccc(N3CCC4(CC3)CC(=Cc3c(-c5c(Cl)cncc5Cl)noc3C3CC3)C4)cc12 [Example 76],14 nM
9,O=C(O)c1cn(C(F)F)c2cc(N3CCC4(CC3)CC(=Cc3c(-c5c(Cl)cncc5Cl)noc3C3CC3)C4)ccc12 [Example 77],40 nM
10,Cc1cc(C(=O)O)nc2ccc(N3CCC4(CC3)CC(Cc3c(-c5ccccc5C(F)(F)F)noc3C3CC3)C4)cc12 [Example 78],16 nM
11,O=C(O)c1cc(OC(F)F)c2cc(N3CCC4(CC3)CC(Cc3c(-c5ccccc5C(F)(F)F)noc3C3CC3)C4)ccc2n1 [Example 79],2 nM
12,CC(C)Oc1cc(C(=O)O)nc2ccc(N3CCC4(CC3)CC(=Cc3c(-c5ccccc5OC(F)(F)F)noc3C3CC3)C4)cc12 [Example 80],2 nM
13,O=C(O)c1cc(OC(F)F)c2cc(N3CCC4(CC3)CC(=Cc3c(-c5c(Cl)cncc5Cl)noc3C3CC3)C4)ccc2n1 [Example 81],3 nM
14,CC(C)Oc1cc(C(=O)O)nc2ccc(N3CCC4(CC3)CC(=Cc3c(-c5ccccc5C(F)(F)F)noc3C3CC3)C4)cc12 [Example 83],5 nM
15,CC(C)Oc1cc(C(=O)O)nc2ccc(N3CCC4(CC3)CC(Cc3c(-c5ccccc5C(F)(F)F)noc3C3CC3)C4)cc12 [Example 84],19 nM
16,CC(C)Oc1cc(C(=O)O)nc2ccc(N3CCC4(CC3)CC(=Cc3c(-c5c(Cl)cncc5Cl)noc3C3CC3)C4)cc12 [Example 85],3 nM
17,O=C(O)c1cc(OC(F)F)c2cc(N3CCC4(CC3)CC(=Cc3c(-c5ccccc5C(F)(F)F)noc3C3CC3)C4)ccc2n1 [Example 86],10 nM
18,O=C(O)c1cc(OCC2CC2)c2cc(N3CCC4(CC3)CC(=Cc3c(-c5ccccc5OC(F)(F)F)noc3C3CC3)C4)ccc2n1 [Example 87],34 nM
19,O=C(O)c1cc(F)c2nc(N3CCC4(CC3)CC(=Cc3c(-c5c(Cl)cncc5Cl)noc3C3CC3)C4)sc2c1 [Example 88],69 nM
20,Cc1cc(C(=O)O)cc2sc(N3CCC4(CC3)CC(=Cc3c(-c5c(Cl)cncc5Cl)noc3C3CC3)C4)nc12 [Example 89],53 nM
21,CC(C)Oc1cc(C(=O)O)nc2ccc(N3CCC4(CC3)CC(Cc3c(-c5ccccc5OC(F)(F)F)noc3C3CC3)C4)cc12 [Example 90],12 nM
22,O=C(O)c1cc(F)c2nc(N3CCC4(CC3)CC(Cc3c(-c5ccccc5OC(F)(F)F)noc3C3CC3)C4)sc2c1 [Example 91],410 nM
